Results on 10 molecules are retold here after patent publication EP4782434A1, “N-SULFONYL CARBOXAMIDE COMPOUND, AND PREPARATION METHOD THEREFOR AND USE THEREOF” (Nutshell Therapeutics (Shanghai) Co., Ltd., priority 2023, dated 2025).

Assay [1] concerns the target T1, Polθ ATPase (Homo sapiens, UniProt O75417).
T1 construct: purified truncated POLQ-N protein (aa 1-894, N-terminal 6-His tag); 6-His (N)
Briefly: Polθ ATPase activity assay (ADP-Glo Kinase Assay kit). The assay is classed as biochemical. The conditions noted are these: truncated POLQ-N protein (aa 1-894) 1 nM, 50 nM ssDNA, 50 µM ATP. Here is the method:
The inhibitory efficiency of the compounds of formula (I) against Polθ ATPase activity was determined using the ADP-Glo Kinase Assay kit (Promega, V9101). […] The starting (final) concentration was 100 nM, followed by a 3-fold serial dilution for a total of 10 concentration points in duplicate (n=2). 5 μL of purified […], N-terminal 6-His tag) was added to each well. After centrifugation at 1000 rpm for 1 minute, the plate was incubated at 25°C for 10 minutes. 5 μL of substrate reaction solution (containing ATP & ssDNA) was added to each well, and the reaction was carried out at 25°C for 60 minutes. 5 μL of ADP-Glo Reagent was added to each well. After centrifugation at 1000 rpm for 1 minute, the plate was incubated at 25°C for 40 minutes. 10 μL of detection solution was added to each well. After centrifugation at 1000 rpm for 1 minute, the plate was incubated at 25°C for 40 minutes. Luminescence signals were recorded using a microplate reader (BMG, PHERAstar FSX). The final reaction system contained 1 nM of POLQ-N enzyme; 50 nM of ssDNA ([NT]); 50 μM of ATP; and 1% DMSO. The inhibition percentage (%) of the compound at each concentration was calculated using the RFU values normalized against the control wells within each assay plate. Table 1: Inhibitory activity of compounds against Polθ ATPase

The test system of assay [2] is DLD-1 BRCA2-/- cells. Briefly: DLD-1 BRCA2-/- cell proliferation assay (CellTiter-Glo, 10 days incubation). The assay is classed as cell-based. The conditions noted are these: Homo sapiens, 240 h, DLD-1 BRCA2-/- cell line, total incubation period of 10 days, read-out: DLD1 BRCA2^-/- IC50. The text has this: The anti-proliferative effect of the compounds on the human colorectal adenocarcinoma cell line DLD-1 BRCA2^-/- method.
• DLD-1 (purchased from ATCC, Cat. No.: CCL-221, Batch No.: 70033255); • RPMI1640 (purchased from Invitrogen, Cat. No.: 11875-085); • 0.25% Trypsin-EDTA (purchased from Invitrogen, Cat. No.: 25200-072); • Penicillin-Streptomycin solution (purchased from Hyclone, Cat. No.: SV30010); • FBS (purchased from BI, Cat. No.: 04-002-1A); • DMSO (purchased from Sigma, Cat. No.: D4540-1L); • 96-well plate (purchased from Corning, Cat. No.: CLS3903); • CellTiter-Glo reagent (purchased from Promega, Cat. No.: G7558).
The anti-proliferative effect of the compounds on a human colorectal adenocarcinoma cell line was evaluated using an ATP quantification method, wherein the measured activity correlates well with the number of viable cells. The genetically edited cell line DLD-1 BRCA2^-/- was cultured in RPMI 1640 medium (Invitrogen, 11875-085) supplemented with 10% (v/v) fetal bovine serum (BI, 04-002-1A). The cell line was cultured according to the standard instructions of the American Type Culture Collection (ATCC) and identified via short tandem repeat (STR) genotyping.
In the proliferation assay, cells were harvested and resuspended in cell culture medium. Cell density was determined using a cell counter. An appropriate volume of cell suspension was aspirated from the centrifuge tube to prepare a plating working solution (150 cells/100 µL for the DLD-1 BRCA2^-/- cell line). 100 µL of the cell suspension was seeded into each well of a 96-well plate (Corning, 3603) and incubated overnight in an incubator. The diluted test compound solutions were added to the wells. On the fourth and seventh days of compound incubation, the medium was replaced with fresh culture medium, and the compounds were re-administered, for a total incubation period of 10 days. Following incubation, the cell culture plates were removed and equilibrated to room temperature. 100 µL of CellTiter-Glo (Promega, G7558) was added to each well, and the plate was incubated at room temperature for 30 minutes. Data were read using a microplate reader (PerkinElmer, Enspire) in 96-well luminescence mode. Data analysis, curve fitting, and reporting were performed using the dose-response one-site 205 model of IDBS XL fit. Table 2: Proliferation inhibitory activity of compounds against DLD-1 BRCA2-/- cells

pIC50: −log10 of the molar value.

T1 sequence (O75417 1-894): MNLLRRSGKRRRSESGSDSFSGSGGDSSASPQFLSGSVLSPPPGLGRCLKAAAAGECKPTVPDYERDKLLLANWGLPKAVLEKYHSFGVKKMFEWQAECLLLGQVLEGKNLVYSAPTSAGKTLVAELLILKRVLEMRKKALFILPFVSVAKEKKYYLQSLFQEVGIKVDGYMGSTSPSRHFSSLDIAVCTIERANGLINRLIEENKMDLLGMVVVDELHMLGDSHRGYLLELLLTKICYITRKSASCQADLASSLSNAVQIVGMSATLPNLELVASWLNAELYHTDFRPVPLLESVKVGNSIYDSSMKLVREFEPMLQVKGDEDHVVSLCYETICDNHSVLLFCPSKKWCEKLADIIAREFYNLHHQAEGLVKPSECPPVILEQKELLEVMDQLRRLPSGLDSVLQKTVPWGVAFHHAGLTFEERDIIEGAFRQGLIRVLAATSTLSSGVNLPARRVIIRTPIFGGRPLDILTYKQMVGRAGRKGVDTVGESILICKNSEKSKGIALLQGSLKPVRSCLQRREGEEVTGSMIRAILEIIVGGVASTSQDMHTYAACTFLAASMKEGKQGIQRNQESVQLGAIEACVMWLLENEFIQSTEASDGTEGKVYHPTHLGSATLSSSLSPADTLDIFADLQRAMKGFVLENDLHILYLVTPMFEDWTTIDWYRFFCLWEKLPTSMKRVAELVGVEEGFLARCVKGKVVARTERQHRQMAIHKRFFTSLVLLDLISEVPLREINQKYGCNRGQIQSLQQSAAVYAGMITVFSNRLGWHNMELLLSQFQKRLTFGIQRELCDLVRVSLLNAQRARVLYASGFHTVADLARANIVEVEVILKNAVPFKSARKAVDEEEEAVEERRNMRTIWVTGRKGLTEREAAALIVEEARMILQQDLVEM

Regarding `COc1ccc(C(F)F)cc1-c1cc(C)ccc1C(=O)NS(=O)(=O)Cc1ccc([C@H](C)OC)cc1` [cpd-3, (S)-5'-(difluoromethyl)-2'-methoxy-N-((4-(1-methoxyethyl)benzyl)sulfonyl)-5-methyl-[1,1'-biphenyl]-2-carboxamide], the pIC50 in assay [1] (class symbols) was no less than 8.70; in assay [1] (specific values), 9.15; in assay [2], 7.62.

With `COc1cnc(C(F)F)cc1-c1cc(C)ncc1C(=O)NS(=O)(=O)Cc1ccc([C@H](C)OC)cc1` [cpd-6, (S)-2'-(Difluoromethyl)-5'-methoxy-N-((4-(1-methoxyethyl)benzyl)sulfonyl)-6-methyl-[4,4'-bipyridine]-3-carboxamide], the pIC50 in assay [1] (class symbols) was no less than 8.70; in assay [1] (specific values), 9.22; in assay [2], 6.72.

With `COc1ccc(C(F)F)cc1-c1cc(C)ccc1C(=O)NS(=O)(=O)Cc1ccc([C@@H](C)OC)cc1` [cpd-7, (R)-5'-(Difluoromethyl)-2'-methoxy-N-((4-(1-methoxyethyl)benzyl)sulfonyl)-5-methyl-[1,1'-biphenyl]-2-carboxamide], the pIC50 is no less than 8.70 in assay [1] (class symbols), 9.15 in assay [1] (specific values) and 7.23 in assay [2].

Take `COc1ccc(C(F)F)cc1-c1cc(C)ncc1C(=O)NS(=O)(=O)Cc1ccc([C@@H](C)OC)cc1` [cpd-9, (R)-4-(5-(Difluoromethyl)-2-methoxyphenyl)-N-((4-(1-methoxyethyl)benzyl)sulfonyl)-6-methylnicotinamide]: the pIC50 is no less than 8.70 in assay [1] (class symbols), 9.28 in assay [1] (specific values) and 7.20 in assay [2].

Consider `COc1cnc(C(F)F)cc1-c1cc(C)ncc1C(=O)NS(=O)(=O)Cc1ccc([C@@H](C)OC)cc1` [cpd-10, (R)-2'-(Difluoromethyl)-5'-methoxy-N-((4-(1-methoxyethyl)benzyl)sulfonyl)-6-methyl-[4,4'-bipyridine]-3-carboxamide], for which the pIC50 in assay [1] (class symbols) was no less than 8.70; in assay [1] (specific values), 8.96; in assay [2] it was 6.29.

Take `COc1ccc(C(F)F)cc1-c1cc(CC(=O)N(C)C2CC2)ccc1C(=O)NS(=O)(=O)Cc1ccc(C(C)C)cc1` [cpd-12, 5-(2-(Cyclopropyl(methyl)amino)-2-oxoethyl)-5'-(difluoromethyl)-N-((4-isopropylbenzyl)sulfonyl)-2'-methoxy-[1,1'-biphenyl]-2-carboxamide]: the pIC50 in assay [1] (class symbols) was no less than 8.70; in assay [1] (specific values) it was 9.00; in assay [2] it was 7.15.

Turning to `COc1ccc(C(F)F)cc1-c1cc(C)ccc1C(=O)NS(=O)(=O)Cc1ccc(COC(F)F)cc1` [cpd-15, N-((4-((Difluoromethoxy)methyl)benzyl)sulfonyl)-5'-(difluoromethyl)-2'-methoxy-5-methyl-[1,1'-biphenyl]-2-carboxamide], the pIC50 in assay [2] is 6.81.

Turning to `COc1ccc(C(F)F)cc1-c1cc(C)ccc1C(=O)NS(=O)(=O)Cc1ccc(C(C)OC)nc1` (centres unmarked) [cpd-20, 5'-(Difluoromethyl)-2'-methoxy-N-(((6-(1-methoxyethyl)pyridin-3-yl)methyl)sulfonyl)-5-methyl-[1,1'-biphenyl]-2-carboxamide], the pIC50 in assay [1] (class symbols) is no less than 8.70; in assay [1] (specific values), 8.85.

Turning to `[2H]C([2H])([2H])O[C@@H](C)c1ccc(CS(=O)(=O)NC(=O)c2ccc(C([2H])([2H])[2H])cc2-c2nc(C(F)F)c(F)cc2OC)cc1` [cpd-23, (S)-2-(6-(Difluoromethyl)-5-fluoro-3-methoxypyridin-2-yl)-N-((4-(1-(methoxy-d3)ethyl)benzyl)sulfonyl)-4-(methyl-d3)benzamide], the pIC50 in assay [2] was 7.66.

Turning to `[2H]C([2H])([2H])O[C@@H](C)c1ccc(CS(=O)(=O)NC(=O)c2ccc(C([2H])([2H])[2H])cc2-c2cc(C(F)F)c(F)nc2OC)cc1` [cpd-24, (S)-2-(5-(Difluoromethyl)-6-fluoro-2-methoxypyridin-3-yl)-N-((4-(1-(methoxy-d3)ethyl)benzyl)sulfonyl)-4-(methyl-d3)benzamide], the pIC50 in assay [2] was 7.48.
